Assay results from PMC8000814, “Structure-Based Virtual Screening: Identification of a Novel NS2B-NS3 Protease Inhibitor with Potent Antiviral Activity against Zika and Dengue Viruses” (Microorganisms, 2021).

Biological target: T1, ZIKV NS2B-NS3 protease (Zika virus ZIKV/H. sapiens/FrenchPolynesia/10087PF/2013, UniProt A0A024B7W1)
T1 construct: recombinant NS2B-NS3 protease cut from the ZIKV genome polyprotein; codon-optimized synthetic gene in pET22b; His-tag fused; E. coli BL21(DE3); Ni-NTA purified
T1 sequence (A0A024B7W1 1503-1680): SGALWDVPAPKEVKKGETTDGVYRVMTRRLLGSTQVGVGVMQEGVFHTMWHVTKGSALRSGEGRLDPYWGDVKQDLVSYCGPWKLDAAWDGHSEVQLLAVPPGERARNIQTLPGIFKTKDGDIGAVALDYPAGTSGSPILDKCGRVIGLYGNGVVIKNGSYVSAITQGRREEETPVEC
Experiment: fluorescence-based protease inhibition assay, ex […] nm / em […] nm
Type: biochemical
Settings: read-out: apparent IC50

## O=[N+]([O-])c1ccc(Nc2ccc3[nH]ncc3c2)nc1N1CCNCC1 [compound 1]
  IC50: 1500 nM
